In PubChem BioAssay (NCI):
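Protocol summary: plate cells (96-well), add compound at 5 concentrations, incubate 48 h, interpolate endpoints linearly. GI50 = concentration required for 50% inhibition of growth. TGI denotes the concentration required for complete inhibition of growth.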

How the values were obtained:
Assay in all cases: NCI anticancer screen, dose series, 48 h
RXF 393 renal = tested on: RXF 393 renal
UACC-62 melanoma = tested on: UACC-62 melanoma
DLD-1 colon = tested on: DLD-1 colon
EKVX NSCLC = tested on: EKVX NSCLC
HCC-2998 colon = tested on: HCC-2998 colon
DMS 114 small cell lung = tested on: DMS 114 small cell lung
SF-268 CNS = tested on: SF-268 CNS
KM12 colon = tested on: KM12 colon
UO-31 renal = tested on: UO-31 renal
HCT-116 colon = tested on: HCT-116 colon

SMILES | TGI (RXF 393 renal) [µM] | TGI (UACC-62 melanoma) [µM] | TGI (DLD-1 colon) [µM] | TGI (EKVX NSCLC) [µM] | TGI (HCC-2998 colon) [µM] | TGI (DMS 114 small cell lung) [µM] | TGI (SF-268 CNS) [µM] | TGI (KM12 colon) [µM] | TGI (UO-31 renal) [µM] | TGI (HCT-116 colon) [µM] | GI50 (RXF 393 renal) [µM] | GI50 (HCT-116 colon) [µM] | GI50 (UACC-62 melanoma) [µM] | GI50 (DLD-1 colon) [µM] | GI50 (EKVX NSCLC) [µM] | GI50 (HCC-2998 colon) [µM] | GI50 (DMS 114 small cell lung) [µM] | GI50 (SF-268 CNS) [µM] | GI50 (KM12 colon) [µM] | GI50 (UO-31 renal) [µM]
CC1=CC(O)(c2ccc(-c3ccccc3Cl)cc2)OC1=O (stereo not drawn) | > 100 | > 100 | > 100 | > 100 | > 100 | > 100 | > 100 | > 100 | > 100 |  |  |  |  |  |  |  |  |  |  | 
CC(C)OP(=O)(OC(C)C)C(=NCCN=C(NNc1ccc([N+](=O)[O-])cc1)P(=O)(OC(C)C)OC(C)C)NNc1ccc([N+](=O)[O-])cc1 |  | 36.7 | > 100 | > 100 | > 100 | > 100 | > 100 | > 100 | > 100 | > 100 |  |  |  |  |  |  |  |  |  | 
CCOC(=O)C(=C=C=C(c1ccccc1)c1ccccc1)C(=O)OCC | 32.8 | 37.7 | 40.7 | 82.8 | 61.4 | 40.1 | 63.5 | 46.1 | 34.1 | 38.6 |  |  |  |  |  |  |  |  |  | 
CC(=O)OC1COC(n2ccc3cc(Br)c([N+](=O)[O-])cc32)C(OC(C)=O)C1OC(C)=O (stereo not drawn) | > 100 | 46.5 | > 100 | > 100 | 59.6 | 94.1 | > 100 | > 100 | 42.8 |  |  |  |  |  |  |  |  |  |  | 
Cn1c2ccccc2c2cc(-c3ccccc3)c3c(c21)C(=O)c1ccccc1C3=O |  | 30.1 | 31 |  | > 100 | 33.6 | 91.8 | 75.8 | 35.4 | 36.3 |  |  |  |  |  |  |  |  |  | 
Brc1ccccc1C1SCc2nc3ccccc3n21 (stereo not drawn) | 23.3 |  | 26.7 | 45.6 |  | 94.4 | 66.1 | 43.4 | 22.6 | 26 |  |  |  |  |  |  |  |  |  | 
CCc1cc(Cc2cc(CC)c(NC(=O)C(=O)Cc3ccccn3)c(CC)c2Cl)c(Cl)c(CC)c1NC(=O)C(=O)Cc1ccccn1 |  | > 100 | > 100 | > 100 | > 100 | > 100 | > 100 | > 100 | > 100 | > 100 |  |  |  |  |  |  |  |  |  | 
O=c1cc(-c2ccccc2)oc2cc(OCCCOc3ccc4c(=O)cc(-c5ccccc5)oc4c3)ccc12 | > 100 | > 100 | > 100 | > 100 | > 100 | > 100 |  | > 100 |  | > 100 |  |  |  |  |  |  |  |  |  | 
CC(C)(C)OC(=O)N[C@H]1CC2(C=C(Cl)C(=O)C(Cl)=C2)OC1=O | 22.4 | 30.6 | 13.4 | 40.9 | 31.8 |  | 32.3 | 32 | 38.8 | 28 |  |  |  |  |  |  |  |  |  | 
COc1ccc(S(=O)(=O)NNS(C)(=O)=O)cc1 | > 100 | > 100 | > 100 | > 100 | > 100 | > 100 | > 100 | > 100 | > 100 | > 100 |  |  |  |  |  |  |  |  |  | 
CN(C)c1nc(=Nc2ccc(N=c3nc(N(C)C)ss3)cc2)ss1 | 41.4 | > 21.3 | 30.2 | > 100 | > 100 | 38.1 | 99.2 | > 100 | > 81.6 | 34.1 |  |  |  |  |  |  |  |  |  | 
Nc1ncnc2c1nnn2C1OC(CO)C(O)C1O (stereo not drawn) | 1.51 | 4.72 | 25.5 | 27.5 | 5.32 | 17.1 | 18.8 | 6.68 | 6.02 | 10.5 | 0.271 |  |  |  |  |  |  |  |  | 
CC(C)=Cc1cc(C(=O)Nc2ccc(Cl)c(Cl)c2)nc(N)n1 | > 100 | > 100 | > 100 | > 100 | > 100 | > 100 | > 100 | > 100 | > 100 | > 100 |  |  |  |  |  |  |  |  |  | 
O=S1(=O)OCCOS(=O)(=O)C1Br |  | > 100 | > 100 |  | > 100 | > 100 | > 100 | > 100 | > 100 | > 100 |  |  |  |  |  |  |  |  |  | 
CC(=O)/C(=C\c1cccc([N+](=O)[O-])c1)C(=O)Nc1ccccc1C | > 100 | > 100 | > 100 | > 100 | > 100 | > 100 | > 100 | > 100 | > 100 | > 100 |  |  |  |  |  |  |  |  |  | 
CCOC(=O)NC(=O)c1cn(CCCO)c(=O)[nH]c1=O |  | > 100 | > 100 | > 100 | > 100 | > 100 | > 100 | > 100 | > 100 | > 100 |  |  |  |  |  |  |  |  |  | 

SMILES | TGI (RXF 393 renal) [µM] | TGI (UACC-62 melanoma) [µM] | TGI (DLD-1 colon) [µM] | TGI (EKVX NSCLC) [µM] | TGI (HCC-2998 colon) [µM] | TGI (DMS 114 small cell lung) [µM] | TGI (SF-268 CNS) [µM] | TGI (KM12 colon) [µM] | TGI (UO-31 renal) [µM] | TGI (HCT-116 colon) [µM] | GI50 (RXF 393 renal) [µM] | GI50 (HCT-116 colon) [µM] | GI50 (UACC-62 melanoma) [µM] | GI50 (DLD-1 colon) [µM] | GI50 (EKVX NSCLC) [µM] | GI50 (HCC-2998 colon) [µM] | GI50 (DMS 114 small cell lung) [µM] | GI50 (SF-268 CNS) [µM] | GI50 (KM12 colon) [µM] | GI50 (UO-31 renal) [µM]
CCCCCCCCC/C=C1\CCC(CN2CCOCC2)C1=O (stereo not drawn) | 4 | 10.7 | 3.9 | 33.9 | 18.8 | 7.42 | 18.2 | 5.2 | 14.9 | 4.04 |  |  |  |  |  |  |  |  |  | 
[Cl-].[La+3].[O-]/N=C(\c1ccccc1)c1ccccn1.[O-]/N=C(\c1ccccc1)c1ccccn1.[O-]/N=C(\c1ccccc1)c1ccccn1 | > 90.4 | > 100 | > 100 | > 89.5 | > 100 | > 100 | > 100 | > 100 | > 80.8 | > 100 | 29.8 | 44 | 33.3 | 43.5 | 40.6 | > 100 | 30.8 | 46 | 82 | 30.2
Clc1ccc(C(c2ccc(Cl)cc2)c2ccccn2)cc1 | 28.2 | 33.4 | 83.5 | 52.5 | 30.9 | > 100 | 69.7 | 42.5 | 30.5 |  |  |  |  |  |  |  |  |  |  | 
C#CC1(O)CCC2C3CCc4cc(Oc5nc(F)nc(-c6c7ccccc7c7sc8ccccc8n67)n5)ccc4C3CC[C@@]21C (stereo partly drawn) |  | > 100 | > 100 |  | > 100 |  | > 100 | > 100 | > 100 | > 100 |  |  |  |  |  |  |  |  |  | 
Cc1ccc(NC(=O)c2cc3cc(N=Nc4ccccc4C(=O)O)ccc3oc2=O)cc1 | > 100 | 85 | > 100 | > 100 |  | 94.3 |  | > 100 | > 100 | > 100 |  |  |  |  |  |  |  |  |  | 
CCCCCCN(CCCCCC)C(=O)Cc1c2n(c3ccccc13)Cc1ccccc1-2 | > 100 | > 100 | > 100 | > 100 | > 100 | 82 | > 100 | > 100 | > 100 | > 100 |  |  |  |  |  |  |  |  |  | 
CN(C)c1ccc(/C=C(\NC(=O)c2ccccc2)c2nc3ncncc3[nH]2)cc1 | > 100 | > 100 | > 100 | > 100 | > 100 | > 100 | > 100 | > 100 | > 100 |  |  |  |  |  |  |  |  |  |  | 
COC(OC)C(C)CC(=O)N(C)C (stereo not drawn) |  | > 100 | > 100 | > 100 | > 100 | > 100 | > 100 | > 100 | > 100 | > 100 |  |  |  |  |  |  |  |  |  | 
C[Si](C)(C)C1(Sc2ccccc2)SCCCS1 | > 100 | > 100 | > 100 | > 100 | > 100 | > 100 | > 100 | > 100 | 39.8 | > 100 |  |  |  |  |  |  |  |  |  | 
COC(=O)C1=C(C)NC(C)=C(C(=O)OCCCN2CCC(c3ccccc3)(c3ccccc3)CC2)C1c1cccc([N+](=O)[O-])c1 (stereo not drawn) | 3.43 | 3.24 |  | 6.42 | 4.58 |  | 3.47 | 3.21 | 3.89 | 2.86 |  |  |  |  |  |  |  |  |  | 
COc1ccc(/C=C(/C#N)n2nnc3cccc(F)c32)cc1 | 6.37 | 29.9 |  | > 100 | 7.14 |  | > 100 | 4.54 | 6.87 | 3.02 | 1.3 | 0.533 | 0.516 |  | 2.37 | 1.83 |  | 2.31 | 0.519 | 1.8
Nc1ncnc2n[nH]c(Nc3ccc(F)cc3)c12 | > 100 | > 100 |  | > 100 | > 100 |  | > 100 | 86.3 | > 100 | 31.9 | 13.6 | 12.3 | 20.8 |  | 33.6 | 51.9 |  | 28.7 | 20.3 | 5.93
C=C1NC(=O)C(C(C)CC)NC(=O)C2CSCC(NC(=O)CCC(=O)O)C(=O)NC(Cc3ccccc3)C(=O)NC(C)C(=O)NC(CC(C)CC)C(=O)NC(C(=O)NC(Cc3ccccc3)C(=O)N3CCCC3C(=O)N2)C(C)OC(=O)C(CO)NC(=O)C(C(O)COC)N(C)C(=O)C(C(C)C)NC(=O)C(CC(C)CC)NC1=O (stereo not drawn) | > 6 | > 6 |  | > 6 | > 6 |  | > 6 | > 6 | > 6 | > 6 | 0.0136 | 0.0137 | 0.00311 |  | 0.046 | 0.0377 |  | 0.0342 | 0.00529 | 0.567
C=C1C(=O)O[C@H]2[C@H]1CC/C(COC(=O)c1c[nH]c3ccccc13)=C\CC[C@@]1(C)O[C@@H]21 | 0.391 | 0.388 |  | 2.01 | 1.08 |  | 1.07 | 2.36 | 0.313 | 0.459 | 0.19 | 0.193 | 0.185 |  | 0.315 | 0.32 |  | 0.294 | 0.477 | 0.165
O=C(/C=C\c1ccc(Cl)c(Cl)c1)c1ccc(Cl)cc1Cl | 39.7 | 35.6 | 26.8 | 56.2 | 58.6 |  | 55.1 | 25.2 | > 100 | > 100 |  | 2.68 |  | 12.6 |  |  |  |  |  | > 100
